{"source": "paper PMC6156755", "about": "“Using Human Plasma as an Assay Medium in Caco-2 Studies Improves Mass Balance for Lipophilic Compounds” (Pharmaceutical Research, 2018)", "key": {"[1]": {"assay": "Human plasma protein binding (ultracentrifugation or rapid equilibrium dialysis)", "assay_type": "in vitro ADME", "conditions": "pH 7.4; neat human plasma, 37°C, concentration comparable to Caco-2 assay; read-out: fu (fraction unbound in plasma)", "description": "Binding was assessed using one of two methods: ultracentrifugation ([31]) using neat human plasma or rapid equilibrium dialysis (RED) using either neat or diluted plasma. […] To allow analysis with a single calibration curve, the total plasma and protein-free supernatant samples were ‘matrix-matched’ by taking aliquots of protein-free supernatant samples and adding to fresh tubes containing an equal volume of blank plasma, or taking aliquots of the total plasma samples and adding to fresh tubes containing an equal volume of Dulbecco’s phosphate-buffered saline (DPBS). In this way, the final composition of both the protein-free supernatant samples and the total plasma samples were ‘matched’ prior to the analysis against a common calibration curve prepared in a 1:1 mixture of human plasma and DPBS. All samples were then stored frozen at −80°C until analysis.\nThe holding plate was then placed on a plate shaker (set at 800 rpm; ThermoMixer C, Eppendorf) and maintained at 37°C under a 2% CO2 atmosphere. The dialysis was conducted for 6 h, assuming steady state was achieved by the end of this period ([32]). Samples were then removed from both the donor and dialysate chambers of each RED insert. […] Samples were matrix matched as described above (but using PBS buffer instead of DPBS) and stored at −80°C until analysis.\nFor the more lipophilic compounds with potential for very high binding, the RED method was used with diluted plasma to increase the chance of detecting concentrations in the dialysate samples. Diluted human plasma (10% v/v in pH 7.4 phosphate buffered saline) was spiked with each compound (at 10% of the concentration used for the Caco-2 experiment with neat plasma) and binding conducted as described above. The binding in neat plasma was then calculated by correcting for the dilution as described below.\nFor binding measurements in neat plasma by ultracentrifugation, the fraction unbound (fu) was calculated from the ratio of the average unbound concentration in protein free supernate (Cunbound) to the average total concentration in non-centrifuged plasma (Ctotal). The standard deviation (SD) for the fu value was calculated using the propagation of errors approach as described previously ([33]). For binding measurements using the RED method in neat plasma, fu was calculated from the ratio of the dialysate to total plasma concentration for each dialysis unit and the mean and SD calculated for replicate units (n = 3).\nFor RED binding assessments using 10% plasma, the fu − diluted for individual dialysis units was calculated in the same way as described above."}, "in vitro": {"assay": "in vitro", "conditions": "human"}, "P-gp": {"system": "P-gp", "assay": "Caco-2 permeability assay with pH 7.4 buffer or human plasma in both chambers", "conditions": "human, Caco-2, pH 7.4, with verapamil 100 µM, Papp B-A, + 100 μM verapamil"}, "Caco-2 cell monolayer": {"system": "Caco-2 cell monolayer", "assay": "Caco-2 permeability assay with pH 7.4 buffer or human plasma in both chambers"}, "[2]": {"assay": "Caco-2 permeability assay with pH 7.4 buffer or human plasma in both chambers", "conditions": "human"}}}
{"smiles": "C[C@H]1O[C@@H](O[C@H]2[C@@H](O)C[C@H](O[C@H]3[C@@H](O)C[C@H](O[C@H]4CC[C@@]5(C)[C@H](CC[C@@H]6[C@@H]5C[C@@H](O)[C@]5(C)[C@@H](C7=CC(=O)OC7)CC[C@]65O)C4)O[C@@H]3C)O[C@@H]2C)C[C@H](O)[C@@H]1O", "note": "[^3H-Digoxin, [^3H(G)]-digoxin]", "values": [{"measurement": "fraction unbound", "setting": "[1]", "value": 0.61}, {"measurement": "Papp A→B", "setting": "in vitro; Caco-2, pH 7.4, Papp A-B", "value": "4.7 ± 0.15", "unit": "×10⁻⁶ cm/s"}, {"measurement": "Papp B→A", "setting": "in vitro; Caco-2, pH 7.4, Papp B-A", "value": "26 ± 1.5", "unit": "×10⁻⁶ cm/s"}, {"measurement": "Papp B→A", "setting": "P-gp; buffer", "value": "5.8 ± 0.53", "unit": "×10⁻⁶ cm/s"}, {"measurement": "Papp B→A", "setting": "P-gp; plasma, corrected for fu", "value": "7.4 ± 0.49", "unit": "×10⁻⁶ cm/s"}, {"measurement": "Mass balance B-A", "setting": "Caco-2 cell monolayer; buffer pH 7.4 in both chambers", "value": "100 ± 0", "unit": "%"}, {"measurement": "Mass balance B-A", "setting": "Caco-2 cell monolayer; buffer, + 100 μM verapamil", "value": "100 ± 0.58", "unit": "%"}, {"measurement": "Mass balance A-B", "setting": "Caco-2 cell monolayer; buffer, + 100 μM verapamil (P-gp inhibitor)", "value": "99 ± 0.58", "unit": "%"}, {"measurement": "Mass balance B-A", "setting": "Caco-2 cell monolayer; human plasma in both chambers", "value": "100 ± 5.8", "unit": "%"}, {"measurement": "Mass balance A-B", "setting": "Caco-2 cell monolayer; plasma, + 100 μM verapamil", "value": "96 ± 2.1", "unit": "%"}, {"measurement": "Mass balance B-A", "setting": "Caco-2 cell monolayer; plasma, + 100 μM verapamil", "value": "99 ± 0.58", "unit": "%"}, {"measurement": "Papp A→B", "setting": "[2]; Caco-2, pH 7.4, Papp A-B, buffer pH 7.4 in both chambers", "value": "2.7 ± 0.21", "unit": "×10⁻⁶ cm/s"}, {"measurement": "Papp B→A", "setting": "[2]; Caco-2, pH 7.4, Papp B-A, buffer pH 7.4 in both chambers", "value": "18 ± 0.58", "unit": "×10⁻⁶ cm/s"}, {"measurement": "Papp A→B", "setting": "[2]; Caco-2, pH 7.4, with verapamil 100 µM, Papp A-B, buffer, + 100 μM verapamil", "value": "4.6 ± 0.46", "unit": "×10⁻⁶ cm/s"}, {"measurement": "Papp A→B", "setting": "[2]; Caco-2, pH 7.4, with verapamil 100 µM, Papp A-B, plasma, + 100 μM verapamil, corrected for fu", "value": "6.2 ± 1", "unit": "×10⁻⁶ cm/s"}]}
